In the NIST ThermoML archive (doi:10.1016/j.jct.2016.07.017):

Details: for viscosity / mass density: 101.33 kPa; for viscosity / mass density / surface tension liquid-gas: Liquid; for viscosity: Falling or rolling sphere viscometry; for mass density: Vibrating tube method; for surface tension liquid-gas: Ring tensiometer

CC[N+](C)(CC)CCOC.O=S(=O)([N-]S(=O)(=O)C(F)(F)F)C(F)(F)F
Details | mass density [kg/m3] | surface tension liquid-gas [mN/m] | viscosity [mPa·s]
288.15 K | 1416.6 | – | 120.6
298.15 K | 1407.33 | 33.6 | 70.96
308.15 K | 1398.12 | 32.6 | 45.36
318.15 K | 1389 | 32.1 | 30.96
328.15 K | 1379.94 | 31.6 | 22.23
338.15 K | 1370.78 | 31.3 | 16.58
348.15 K | 1361.55 | – | 12.79
358.15 K | 1352.39 | – | 10.18
368.15 K | 1343.38 | – | 8.19

Details | Glass transition temperature [°C]
Glass, DSC | -93.7
